Values of other authors as cited in patent publication US20230021879A1, “SYNTHESIS OF 3 -RNA OLIGONUCLEOTIDES” (ALNYLAM PHARMACEUTICALS, INC., priority 2019, published 2023).

Molecular target: P-glycoprotein 1 (P-gp) (Homo sapiens, UniProt P08183)
Settings: earlier studies

P-glycoprotein 1 (P-gp), sequence (P08183 whole entry, species assumed): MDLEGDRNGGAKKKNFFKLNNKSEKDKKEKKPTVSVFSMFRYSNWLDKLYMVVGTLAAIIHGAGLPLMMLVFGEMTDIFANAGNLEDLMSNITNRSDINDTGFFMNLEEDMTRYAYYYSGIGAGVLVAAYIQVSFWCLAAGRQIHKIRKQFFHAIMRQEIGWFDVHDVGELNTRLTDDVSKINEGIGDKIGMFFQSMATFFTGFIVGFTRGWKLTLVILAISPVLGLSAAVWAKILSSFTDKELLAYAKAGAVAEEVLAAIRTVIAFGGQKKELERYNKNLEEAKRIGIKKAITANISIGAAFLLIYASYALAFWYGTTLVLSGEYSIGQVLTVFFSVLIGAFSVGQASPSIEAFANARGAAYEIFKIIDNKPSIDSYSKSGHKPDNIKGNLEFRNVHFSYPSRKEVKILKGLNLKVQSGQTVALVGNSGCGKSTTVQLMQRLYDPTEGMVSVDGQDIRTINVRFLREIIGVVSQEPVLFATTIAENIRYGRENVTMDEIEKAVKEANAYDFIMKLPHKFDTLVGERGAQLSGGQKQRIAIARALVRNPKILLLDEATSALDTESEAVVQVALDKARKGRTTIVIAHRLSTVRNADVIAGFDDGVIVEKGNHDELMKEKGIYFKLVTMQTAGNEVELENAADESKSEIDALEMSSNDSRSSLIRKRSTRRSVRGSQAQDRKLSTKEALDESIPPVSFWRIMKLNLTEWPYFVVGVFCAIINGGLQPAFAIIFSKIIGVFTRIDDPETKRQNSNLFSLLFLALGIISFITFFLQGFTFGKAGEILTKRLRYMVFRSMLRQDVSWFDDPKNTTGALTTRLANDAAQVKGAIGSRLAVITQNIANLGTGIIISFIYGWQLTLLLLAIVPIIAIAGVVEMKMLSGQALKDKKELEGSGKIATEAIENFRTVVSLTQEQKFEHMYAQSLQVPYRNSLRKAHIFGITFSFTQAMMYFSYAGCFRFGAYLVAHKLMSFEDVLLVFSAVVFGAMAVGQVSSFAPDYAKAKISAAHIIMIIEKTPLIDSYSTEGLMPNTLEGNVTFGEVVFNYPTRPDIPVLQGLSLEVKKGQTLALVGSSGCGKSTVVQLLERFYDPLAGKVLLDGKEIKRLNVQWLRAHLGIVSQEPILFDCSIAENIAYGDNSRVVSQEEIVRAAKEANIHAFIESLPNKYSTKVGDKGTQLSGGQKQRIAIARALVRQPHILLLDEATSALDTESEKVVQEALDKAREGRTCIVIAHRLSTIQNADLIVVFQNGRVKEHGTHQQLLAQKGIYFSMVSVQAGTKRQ

- P-gp substrate status: poor substrate
SMILES: C[C@@H]1O[C@@H](O[C@H]2C[C@](O)(C(=O)CO)Cc3c(O)c4c(c(O)c32)C(=O)c2ccccc2C4=O)[C@H](I)[C@H](O)[C@H]1O [Annamycin, (7S,9S)-7-(((2R,3R,4R,5R,6S)-4,5-dihydroxy-3-iodo-6-methyltetrahydro-2H-pyran-2-yl)oxy)-6,9,11-trihydroxy-9-(2-hydroxyacetyl)-7,8,9,10-tetrahydrotetracene-5,12-dione]
